# Literature values, collected in article PMC6277198, “Molecular basis for activation of lecithin:cholesterol acyltransferase by a compound that increases HDL cholesterol” (eLife, 2018).
# Tests used:
# LCAT = test system: LCAT; design: method as in Kobayashi et al., 2015a; Kobayashi et al., 2015b; details: removal of the C4 hydroxyl group, ref Kobayashi et al., 2015a, 2015b; cited from earlier work
# [1] = design: method as in Shamburek et al., 2016b; details: ref Shamburek et al., 2016b; cited from earlier work
# mice and hamsters = test system: mice and hamsters; design: method as in Chen et al., 2012; Freeman et al., 2017; Kayser et al., 2013; details: ref Chen et al., 2012, Freeman et al., 2017, Kayser et al., 2013; cited from earlier work
compound,measurement,setting,value
"O=C1CC(C(F)(F)F)c2c(C3CCN(c4cnc(C(F)(F)F)cn4)CC3)n[nH]c2N1 (stereo not drawn) [compound 4, 4-(trifluoromethyl)−3-(1-(5-(trifluoromethyl)pyrazin-2-yl)piperidin-4-yl)−1,4,5,7-tetrahydro-6H-pyrazolo[3,4-b]pyridin-6-one]",drop in potency compared with 2,LCAT,~ 6 fold
"rhLCAT: Recombinant human LCAT, tested in phase I and as enzyme replacement therapy",safety in a phase I study,[1],safe
"CCSc1nnc(Sc2nccnc2C#N)s1 [Compound A, 3-(5-(ethylthio)−1,3,4-thiadiazol-2-ylthio)pyrazine-2-carbonitrile]",plasma CE and HDL-C levels,mice and hamsters,increases
